Measured values from ChEMBL document CHEMBL5727275, “Tetrahydronaphthyl urea derivative” (2019).

Target: High affinity nerve growth factor receptor (Homo sapiens, UniProt P04629)
Experiment: Evaluation of Binding Activity for Human TrkA Protein: Measurement was carried out using TrkA LanthaScreen (registered trademark) Eu Kinase Binding Assay (ThermoFisher SCIENTIFIC). To a 384 well plate (Corning), 2.5 μL of the test compound having various concentrations and diluted with Kinase buffer (ThermoFisher SCIENTIFIC) and 2.5 μL of 15 nM TrkA enzyme (ThermoFisher SCIENTIFIC) were added. Moreover, […] Eu-anti-His Tag antibody (ThermoFisher SCIENTIFIC) and 5 μL of 30 nM Kinase (registered trademark) Tracer 236 (ThermoFisher SCIENTIFIC) were added, followed by reaction at room temperature for 60 minutes. After the reaction, the fluorescence intensity of Europium (Emission wavelength 615 nm) and TR-FRET (Emission wavelength 665 nm) with an excitation wavelength of 340 nm were measured with EnVision 2100 (PerkinElmer) to calculate the fluorescence ratio as the amount of the test compound and the TrkA enzyme bonded. The inhibitory activity (IC50 value) of each test compound was calculated with the fluorescence ratio of the well to which a solvent was added instead of the test compound being 0% and the fluorescence ratio of the well without addition of the TrkA protein being 100%.

High affinity nerve growth factor receptor, sequence (P04629 whole entry): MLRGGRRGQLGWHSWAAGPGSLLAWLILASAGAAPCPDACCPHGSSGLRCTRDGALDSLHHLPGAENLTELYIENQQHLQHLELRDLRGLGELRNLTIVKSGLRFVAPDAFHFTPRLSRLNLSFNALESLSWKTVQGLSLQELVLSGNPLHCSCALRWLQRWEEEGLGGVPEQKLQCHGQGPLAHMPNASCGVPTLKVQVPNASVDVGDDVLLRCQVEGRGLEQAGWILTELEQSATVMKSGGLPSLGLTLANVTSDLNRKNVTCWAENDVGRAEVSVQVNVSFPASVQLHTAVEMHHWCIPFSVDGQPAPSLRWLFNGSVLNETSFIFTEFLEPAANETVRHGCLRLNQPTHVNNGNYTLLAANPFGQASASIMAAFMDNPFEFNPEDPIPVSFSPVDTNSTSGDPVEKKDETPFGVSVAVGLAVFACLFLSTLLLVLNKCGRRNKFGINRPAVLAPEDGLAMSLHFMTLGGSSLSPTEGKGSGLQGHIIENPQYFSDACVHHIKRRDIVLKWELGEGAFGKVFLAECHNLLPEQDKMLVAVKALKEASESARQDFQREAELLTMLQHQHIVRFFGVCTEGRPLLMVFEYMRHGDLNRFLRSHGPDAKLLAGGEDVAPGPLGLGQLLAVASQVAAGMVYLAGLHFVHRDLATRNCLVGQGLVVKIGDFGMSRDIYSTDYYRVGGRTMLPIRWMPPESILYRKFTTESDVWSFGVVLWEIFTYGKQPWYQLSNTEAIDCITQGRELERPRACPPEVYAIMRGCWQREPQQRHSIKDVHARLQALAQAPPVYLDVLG

| IC50 [nM] | Structure (SMILES) |
| --- | --- |
| < 50 | Cc1ncc(-c2nc(-c3ccccc3)c(NC(=O)N[C@H]3c4ccc(F)cc4C(C)(C)C[C@H]3O)cc2C)cn1 |
| < 50 | Cc1ncc(-c2nc(-c3ccccc3)c(NC(=O)N[C@H]3c4cc(F)ccc4C(C)(C)C[C@H]3O)cc2C)cn1 |
